Source: article PMC4859512, “Polyamino-Isoprenic Derivatives Block Intrinsic Resistance of P. aeruginosa to Doxycycline and Chloramphenicol In Vitro” (PLoS ONE, 2016)
Where “and” joins values, the source holds several entries; their conditions need not be identical. Equal entries are not always repeated.

Experiments:
[1] = tested on: P. aeruginosa PT629 (Mex AB overproducer); assay: Antibiotic susceptibility testing (broth micro-dilution MIC), strain PT629; assay type: cell-based, Pseudomonas aeruginosa
P. aeruginosa strains = assay: Synergy assays of compound 3 with representative anti-pseudomonal agents (summary in words, all strains); assay type: cell-based, Pseudomonas aeruginosa
Description: We concluded that compound 3 was the best compound and suitable for a more detailed study. The same experiment was performed using chloramphenicol (4 mg/L) in combination with 3 (10 μM final concentration). Amongst the 20 clinical isolates, the growth of 15 (75%) was impaired, while 5 (25%) were resistant (data not shown). These experiments were performed to study the effect of our compounds on the natural resistance of P. aeruginosa. In addition, we were wondering if compound 3 could also increase susceptibility to other antibiotic families including ß-Lactams, fluoroquinolones and aminoglycosides, that are representative of the main classes of anti-pseudomonal agents. Experiments were performed with the ß-lactams ceftazidime and ticarcillin and ciprofloxacin and amikacin. […]. […] To better characterize compound 3, we first searched for the minimum concentration of compound that allowed killing of bacteria by doxycycline, and PAßN was used as the reference molecule.

[2] = tested on: efflux of 1,2'-dinaphthylamine in strain PA01; assay: Real-time efflux assay (1,2'-dinaphthylamine, glucose-triggered); assay type: cell-based, Pseudomonas aeruginosa
Description: The experiments were performed as previously described with slight modifications. For each strain, 20 mL of MHII was inoculated with a single colony from a fresh plate and grown at 37°C to the stationary phase. […] They were then loaded over night with the dye 1,2’-dinaphthylamine (TCI-Europe SA, Zwijndrecht, Belgium) at a final concentration of 32 μM, in the presence of 5 μM CCCP. […] In a 96-well Greiner black microplate (Greiner, Courtaboeuf, France), a gradient of inhibitor (when used) was prepared in PPB, and bacteria were added (100 μL per well). The fluorescence of the cell suspension, was monitored each 22 sec during 1200 sec on an Infinite M200 microplate reader (Tecan; excitation wavelength 370 nm and emission wavelength 420 nm). In order to trigger the transport, glucose (50 mM final concentration) is added at 200 sec. The maximum efficacy of the efflux is the difference between the value obtained without and with glucose addition after 1200 sec. For each compound, the efficiency of efflux inhibition is calculated as the difference between the maximum efficacy of transport and the residual transport obtained at various concentrations of the compound.

CHO-K1 cells = assay: cells; assay type: cell-based, Chinese Hamster; conditions: Cricetulus griseus, CHO-K1; WST1, 24 h; mean +/- SD, 2 independent experiments
Description: CHO-K1 cells (ATCC-LGC Standards Sarl (Molsheim, France) and human fibroblasts (Clinisciences, Paris, France) were maintained in McCoy’s 5A and DMEM media, respectively, supplemented with 10% bovine calf serum, 2 mM glutamine, and 100 U/mL/10 μg/mL penicillin/streptomycin. They were incubated at 37°C in a humidified atmosphere containing 5% CO2. The cell lines were seeded in 96-well plates and incubated overnight. The cytotoxic effects of compounds were assessed by the colorimetric WST-1 cell proliferation assay as previously described. Briefly, a range of compound concentrations from 30 μM to 1200 μM was added to triplicate cultures, and cells were incubated at 37°C for 24 h. At the end of the incubation period, cultures were washed three times with phosphate buffer saline (PBS) and incubated in fresh culture medium containing 10% WST-1 for an additional 30 min. Cell viability was evaluated by measuring the WST-1 absorbance at 450 nm in a microplate spectrophotometer MRX1 II (Dynex technologies, Chantilly, VA, USA). The Inhibitory Concentration 50% (IC50) was chosen to evaluate the cytotoxicity of compounds. IC50 was defined as the concentration of a compound that induced a 50% decrease in viable cells. Doxorubicin was used as a positive control.

[3] = tested on: P. aeruginosa PA01 reference strain; assay: High-content screening in the presence of doxycycline; conditions: compound 10 μM, doxycycline 4 mg/L
Description: The screening was carried out in 96-well microtiter plates using MHBII, in a final volume of 200 μL. […] The bacterial inoculum of 5×10^5 CFU/mL was prepared from an overnight culture. In addition to the polyamino-isoprenic compounds, each plate contained PAßN, CCCP, CTAB, polymyxin-B and benzalkonium chloride as control molecules. Plates were incubated at 37°C under aerobic conditions for 18 hours. Plates were read at 600 nm on an Infinite M200 Pro plate reader (Tecan).
A series of 60 compounds, which were described [18], were tested at a concentration of 10 μM in combination with a sub-inhibitory concentration of doxycycline against the reference strain of P. aeruginosa PA01. In parallel, we evaluated the intrinsic antimicrobial activity of these compounds alone to allow the selection of only doxycycline adjuvants.

[4] = tested on: outer membrane of P. aeruginosa PA01; assay: Outer membrane permeation assay (nitrocefin hydrolysis)
Description: An overnight culture of PA01 was diluted 100-fold into 10 ml MHII broth containing 0.01 μg/ml of imipenem to induce a higher level of β-lactamases. […] Absorbance at 490 nm was monitored by spectrophotometry using an Infinite M200 microplate reader (Tecan) over 60 min. Experiments were performed in triplicate.

SMILES: CC(C)=CCCC(C)=CCCC(C)=CCNCCCNCCCCNCCCN [Compound 3]
- MIC of Amikacin in the presence of the compound ([1]; PT629, compound 10µM): 64 mg/L
- MIC of Ceftazidime in the presence of the compound ([1]; PT629, compound 10µM): 8 mg/L
- MIC of Ciprofloxacin in the presence of the compound ([1]; PT629, compound 10µM): 0.5 mg/L
- MIC of Ticarcillin in the presence of the compound ([1]; PT629, compound 10µM): 64 mg/L
- MIC ([1]; Pseudomonas aeruginosa, read-out: Minimal Inhibitory Concentration): 25 µg/mL and 62.5 µM
- synergy with ciprofloxacin (P. aeruginosa strains; all strains with the exception of PA0-7H): No synergistic effect
- effect of combination with ticarcillin (P. aeruginosa strains; all the strains): slight effect
- effect on the MIC of amikacin (P. aeruginosa strains; every strains): surprising increase of the MIC
- rank of efflux inhibition among compounds 1-4 and PAßN [2]: the most efficient
- IC50 ([2]; Pseudomonas aeruginosa, 2.5x10^8 cfu/mL, read-out: concentration needed to inhibit 50% of 1,2'DNA efflux): 31.2 µM
- inhibition at 31.25 µM ([2]; Pseudomonas aeruginosa, compound at 31.25μM): 60%
- efflux inhibition ([2]; compound at 15.6μM): fifty percent efflux inhibition
- efflux inhibition ([2]; compound at 125μM): completely abolished the transportation of dye
- IC50 (CHO-K1 cells): 320 ± 41.2 µM
- bacterial growth in combination with doxycycline [3]: completely abolished bacterial growth
- outer membrane permeation efficacy ([4]; compound at 15.6μM, p value ≤ 0.05): significantly identical to 31.25μM of PMBN
- outer membrane permeation activity ([4]; compound at 31.25μM, relative to 250 μM polymyxin-B): 10%
